Laboratory results reported in article PMC2193201 (The Journal of Experimental Medicine, 2000).
Where a SMILES comes first, the peptide text is derived from it.

Columns and labels:
[1] = molecular target: T1, aminopeptidase M from pig kidney (Sus scrofa, UniProt P15145)
T1 sequence (P15145 whole entry, looked up): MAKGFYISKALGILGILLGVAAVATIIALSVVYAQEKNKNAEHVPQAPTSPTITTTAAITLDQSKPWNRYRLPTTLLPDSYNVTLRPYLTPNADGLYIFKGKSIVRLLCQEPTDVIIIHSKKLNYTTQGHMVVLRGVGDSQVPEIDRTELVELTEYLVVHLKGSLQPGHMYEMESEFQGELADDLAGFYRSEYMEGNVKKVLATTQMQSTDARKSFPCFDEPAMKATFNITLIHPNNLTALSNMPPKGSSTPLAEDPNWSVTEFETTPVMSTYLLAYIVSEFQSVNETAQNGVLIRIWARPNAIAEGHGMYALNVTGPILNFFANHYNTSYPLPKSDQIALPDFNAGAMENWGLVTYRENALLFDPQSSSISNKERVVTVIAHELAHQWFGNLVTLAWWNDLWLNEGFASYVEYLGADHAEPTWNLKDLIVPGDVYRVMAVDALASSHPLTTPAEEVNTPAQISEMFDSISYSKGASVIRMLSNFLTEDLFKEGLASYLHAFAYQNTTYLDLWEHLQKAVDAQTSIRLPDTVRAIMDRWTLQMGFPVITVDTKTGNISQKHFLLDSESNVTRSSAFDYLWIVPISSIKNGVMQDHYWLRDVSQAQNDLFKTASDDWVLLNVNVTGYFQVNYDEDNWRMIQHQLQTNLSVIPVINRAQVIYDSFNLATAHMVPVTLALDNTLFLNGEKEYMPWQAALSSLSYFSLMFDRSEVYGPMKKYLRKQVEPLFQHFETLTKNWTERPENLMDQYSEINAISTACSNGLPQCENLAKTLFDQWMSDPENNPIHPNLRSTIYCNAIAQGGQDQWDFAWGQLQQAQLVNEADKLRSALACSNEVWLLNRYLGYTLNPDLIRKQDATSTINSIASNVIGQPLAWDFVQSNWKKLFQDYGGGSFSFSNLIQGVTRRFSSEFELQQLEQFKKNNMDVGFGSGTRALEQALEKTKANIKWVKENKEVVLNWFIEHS

20S proteasome = assay: purified 20S proteasome; settings: human, 37°C, up to 24 h
B*3909 = B*3909 (Homo sapiens, UniProt P01889, A182T/A93T/A95T/C349S/D138N/D201E/E176V/E187T/E204Q/K202T/Q94N/R155S/R180L/S121R/Y123S/Y140F/Y91C); assay: cell-based
aminopeptidase M = settings: pig, 37°C, up to 10 min

## THGPPVQL
[1]
  MALDI-TOF MS peak signal after digestion with aminopeptidase M: reduced almost to background levels

## NAc-SHVAVENALGLDQQFAGLDLNSSDNQSGGS
20S proteasome
  cleaved bond: L9-G10, major

## CC(C)C[C@H](NC(=O)[C@H](Cc1ccc(O)cc1)NC(=O)[C@H](Cc1ccccc1)NC(=O)[C@H](CCC(=O)O)NC(=O)[C@@H](NC(=O)[C@H](CCC(=O)O)NC(=O)[C@H](CC(=O)O)NC(=O)[C@H](CCCNC(=N)N)NC(=O)[C@H](C)N)[C@@H](C)O)C(=O)O (H-ARDETEFYL-OH)
B*3909
  EC50: 5 µM

## CC(C)C[C@H](NC(=O)[C@H](C)NC(=O)[C@@H](NC(=O)[C@@H](NC(=O)CNC(=O)[C@@H]1CCCN1C(=O)[C@H](CCCNC(=N)N)NC(=O)[C@@H](N)Cc1ccc(O)cc1)[C@@H](C)O)C(C)C)C(=O)O [YRPGTVAL] (H-YRPGTVAL-OH)
B*3909
  EC50: 12 µM

## NAc-SHVAVENAL
Aminopeptidase M
  not cleaved: signals remained strongly significant
